Data on 27 compounds can be found in US20070219186A1, “Pyrazolo[1,5-A]pyrimidine derivatives and methods of use thereof” (priority 2006, published 2007).

The target in this test is T1, human B-Raf (Homo sapiens, UniProt P15056).
T1 construct: Flag; GST; made in house; host or cells: Sf9 insect cells (B-Raf); E. coli (MEK1-GST)
Nature of the test: B-Raf Kinase to MEK1 ELISA. Conditions: for inhibition at 10 µM: read-out: % Inhib./10 uM. The test is classed as biochemical. The essentials:
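Read-out is a DELFIA europium signal from phospho-MEK1 (Ser217/221) antibody after capture of GST-MEK1 (50 nM final) on anti-GST plates. Phosphorylation comes from Sf9-expressed Flag/GST human B-Raf (~20 ng) with ATP/MgCl2, 60 min RT, pH 7.2 MOPS.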

Where [1] appears, read: median, cpd concentrations from 10 μM to 30 nM in half log dilutions, read-out: Median IC50.

Where two headings read alike, the source gives them in different places.

T1 sequence (P15056 whole entry): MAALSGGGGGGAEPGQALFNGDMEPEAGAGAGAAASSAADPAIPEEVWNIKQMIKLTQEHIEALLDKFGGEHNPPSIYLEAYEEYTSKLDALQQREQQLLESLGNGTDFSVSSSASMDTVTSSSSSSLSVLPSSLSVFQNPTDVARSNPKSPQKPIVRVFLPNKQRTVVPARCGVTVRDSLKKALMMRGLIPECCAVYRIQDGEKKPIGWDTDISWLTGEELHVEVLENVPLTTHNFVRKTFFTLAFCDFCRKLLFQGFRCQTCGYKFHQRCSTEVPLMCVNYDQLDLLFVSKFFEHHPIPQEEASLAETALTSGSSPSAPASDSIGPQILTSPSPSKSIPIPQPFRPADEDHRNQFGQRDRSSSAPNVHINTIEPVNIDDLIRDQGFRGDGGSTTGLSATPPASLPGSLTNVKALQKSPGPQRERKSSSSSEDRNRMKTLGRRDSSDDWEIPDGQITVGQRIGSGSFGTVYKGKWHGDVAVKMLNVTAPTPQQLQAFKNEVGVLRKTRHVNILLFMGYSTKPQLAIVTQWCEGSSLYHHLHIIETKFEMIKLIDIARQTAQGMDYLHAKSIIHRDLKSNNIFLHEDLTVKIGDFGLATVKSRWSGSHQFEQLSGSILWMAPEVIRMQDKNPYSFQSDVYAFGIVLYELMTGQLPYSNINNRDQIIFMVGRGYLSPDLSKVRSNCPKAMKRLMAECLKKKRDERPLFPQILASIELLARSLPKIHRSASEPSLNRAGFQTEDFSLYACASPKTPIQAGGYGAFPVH

What is called IC50 is the concentration at which inhibition is half-maximal. As to `CCOC(=O)c1cnn2c(-c3cccc(NC(=O)Cc4cc(C(F)(F)F)cc(C(F)(F)F)c4)c3)ccnc12` [Example 99, ethyl 7-[3-({[3,5-bis(trifluoromethyl)phenyl]acetyl}amino)phenyl]pyrazolo[1,5-a]pyrimidine-3-carboxylate], the inhibition at 10 µM is 13%. Besides, the IC50 under setting [1] is more than 10 µM.
Taken in the same sequence, the figures for `CCOC(=O)c1cnn2c(-c3cccc(NC(=O)Cc4ccc5c(c4)OCO5)c3)ccnc12` [Example 100, ethyl 7-{3-[(1,3-benzodioxol-5-ylacetyl)amino]phenyl}pyrazolo[1,5-a]pyrimidine-3-carboxylate] were 2% and more than 10 µM.
In the same order, the values of `CCOC(=O)c1cnn2c(-c3cccc(NC(=O)Cc4ccc(OC)c(C)c4)c3)ccnc12` [Example 101, ethyl 7-(3-{[(4-methoxy-3-methylphenyl)acetyl]amino}phenyl)pyrazolo[1,5-a]pyrimidine-3-carboxylate] are 0% and more than 10 µM.
`CCOC(=O)c1cnn2c(-c3cccc(NC(=O)Cc4c(F)ccc(F)c4F)c3)ccnc12` [Example 102, ethyl 7-(3-{[(2,3,6-trifluorophenyl)acetyl]amino}phenyl)pyrazolo[1,5-a]pyrimidine-3-carboxylate]: the inhibition at 10 µM was 0%. Besides, the 50% inhibitory concentration (IC50) under setting [1] is more than 10 µM.
Taken in the same sequence, the figures for `CCOC(=O)c1cnn2c(-c3cccc(NC(=O)c4ccc(Cl)c(C(F)(F)F)c4)c3)ccnc12` [Example 103, ethyl 7-(3-{[4-chloro-3-(trifluoromethyl)benzoyl]amino}phenyl)pyrazolo[1,5-a]pyrimidine-3-carboxylate] were 59% and 2.49 µM.
Turning to `CCOC(=O)c1cnn2c(-c3cccc(NC(=O)c4cc(C(F)(F)F)ccc4C)c3)ccnc12` [Example 104, ethyl 7-(3-{[2-methyl-5-(trifluoromethyl)benzoyl]amino}phenyl)pyrazolo[1,5-a]pyrimidine-3-carboxylate], the IC50 under setting [1] is 10.1 µM. In addition, the inhibition at 10 µM (single point assay, 10 uM) is 1%.
On to `CCOC(=O)c1cnn2c(-c3cc(NC(=O)c4ccc(C)c(C(F)(F)F)c4)ccc3[N+](=O)[O-])ccnc12` [Example 105, ethyl 7-(5-{[4-methyl-3-(trifluoromethyl)benzoyl]amino}-2-nitrophenyl)pyrazolo[1,5-a]pyrimidine-3-carboxylate], for which the inhibition at 10 µM is 37%. The IC50 under setting [1] is more than 10 µM.
Take `CCOC(=O)c1cnn2c(-c3ccc(Cl)c(NC(=O)c4ccc(C)c(C(F)(F)F)c4)c3)ccnc12` [Example 106, ethyl 7-(4-chloro-3-{[4-methyl-3-(trifluoromethyl)benzoyl]amino}phenyl)pyrazolo[1,5-a]pyrimidine-3-carboxylate]: the inhibition at 10 µM was found to be 2%. Moreover, the IC50 under setting [1] was more than 10 µM.
Take `CCOC(=O)c1cnn2c(-c3ccc(OC)c(NC(=O)c4ccc(C)c(C(F)(F)F)c4)c3)ccnc12` [Example 107, ethyl 7-(4-methoxy-3-{[4-methyl-3-(trifluoromethyl)benzoyl]amino}phenyl)pyrazolo[1,5-a]pyrimidine-3-carboxylate]: the inhibition at 10 µM was 0%. Further, the IC50 under setting [1] was more than 10 µM.
In the same order, the values of `CCOC(=O)c1cnn2c(-c3ccc(OCc4ccccc4)c(NC(=O)c4ccc(C)c(C(F)(F)F)c4)c3)ccnc12` [Example 108, ethyl 7-(4-(benzyloxy)-3-{[4-methyl-3-(trifluoromethyl)benzoyl]amino}phenyl)pyrazolo[1,5-a]pyrimidine-3-carboxylate] are 20% and more than 10 µM.
Regarding `CN(C)CCCc1cc2nccc(-c3cccc(NC(=O)c4cccc(C(F)(F)F)c4)c3)n2n1` [Example 110, N-(3-{2-[3-(dimethylamino)propyl]pyrazolo[1,5-a]pyrimidin-7-yl}phenyl)-3-(trifluoromethyl)benzamide], the inhibition at 10 µM is 24%. Also, the IC50 under setting [1] is more than 10 µM.
In the case of `O=C(Nc1cccc(-c2ccnc3cc(-c4ccccn4)nn23)c1)c1cccc(C(F)(F)F)c1` [Example 111, N-[3-(2-pyridin-2-ylpyrazolo[1,5-a]pyrimidin-7-yl)phenyl]-3-(trifluoromethyl)benzamide], the inhibition at 10 µM stood at 24%. In addition, the IC50 under setting [1] is more than 3 µM.
In the same order, the values of `Cc1cc2nccc(-c3cccc(NC(=O)c4cccc(C(F)(F)F)c4)c3)n2n1` [Example 112, N-[3-(2-methylpyrazolo[1,5-a]pyrimidin-7-yl)phenyl]-3-(trifluoromethyl)benzamide] are 26% and more than 10 µM.
In the same order, the values of `O=C(Nc1cccc(-c2ccnc3cc(-c4ccco4)nn23)c1)c1cccc(C(F)(F)F)c1` [Example 113, N-{3-[2-(2-furyl)pyrazolo[1,5-a]pyrimidin-7-yl]phenyl}-3-(trifluoromethyl)benzamide] are 45% and more than 10 µM.
As to `O=C(Nc1cccc(-c2ccnc3cc(-c4ccc(Cl)cc4)nn23)c1)c1cccc(C(F)(F)F)c1` [Example 115, N-{3-[2-(4-chlorophenyl)pyrazolo[1,5-a]pyrimidin-7-yl]phenyl}-3-(trifluoromethyl)benzamide], the inhibition at 10 µM worked out at 24%. In addition, the IC50 under setting [1] was more than 10 µM.
Take `Cc1cc2nccc(-c3cccc(NC(=O)c4ccc(C)c(C(F)(F)F)c4)c3)n2n1` [Example 116, 4-methyl-N-[3-(2-methylpyrazolo[1,5-a]pyrimidin-7-yl)phenyl]-3-(trifluoromethyl)benzamide]: the inhibition at 10 µM turned out to be 31%. Moreover, the IC50 under setting [1] is more than 10 µM.
In the same order, the values of `Cc1ccc(C(=O)Nc2cccc(-c3ccnc4cc(-c5cccs5)nn34)c2)cc1C(F)(F)F` [Example 117, 4-methyl-N-{3-[2-(2-thienyl)pyrazolo[1,5-a]pyrimidin-7-yl]phenyl}-3-(trifluoromethyl)benzamide] are 24% and more than 10 µM.
As for `Cc1ccc(C(=O)Nc2cccc(-c3ccnc4cc(-c5ccc(Cl)cc5)nn34)c2)cc1C(F)(F)F` [Example 118, N-{3-[2-(4-chlorophenyl)pyrazolo[1,5-a]pyrimidin-7-yl]phenyl}-4-methyl-3-(trifluoromethyl)benzamide], the inhibition at 10 µM was 22%. Besides, the 50% inhibitory concentration (IC50) under setting [1] was more than 10 µM.
In the same order, the values of `Cc1ccc(C(=O)Nc2cccc(-c3ccnc4cc(-c5ccccc5)nn34)c2)cc1C(F)(F)F` [Example 119, 4-methyl-N-[3-(2-phenylpyrazolo[1,5-a]pyrimidin-7-yl)phenyl]-3-(trifluoromethyl)benzamide] are 29% and more than 10 µM.
In the same order, the values of `O=C(Nc1cccc(-c2ccnc3c(C(=O)NCCCn4ccnc4)cnn23)c1)Nc1ccc(Cl)c(C(F)(F)F)c1` [Example 120, 7-{3-[({[4-chloro-3-(trifluoromethyl)phenyl]amino}carbonyl)amino]phenyl}-N-[3-(1H-imidazol-1-yl)propyl]pyrazolo[1,5-a]pyrimidine-3-carboxamide] are 92% and 0.12 µM.
In the same order, the values of `COCCCNC(=O)c1cnn2c(-c3cccc(NC(=O)Nc4ccc(Cl)c(C(F)(F)F)c4)c3)ccnc12` [Example 121, 7-{3-[({[4-chloro-3-(trifluoromethyl)phenyl]amino}carbonyl)amino]phenyl}-N-(3-methoxypropyl)pyrazolo[1,5-a]pyrimidine-3-carboxamide] are 92% and 0.19 µM.
Consider `CCN(CC)CCNC(=O)c1cnn2c(-c3cccc(NC(=O)Nc4ccc(Cl)c(C(F)(F)F)c4)c3)ccnc12` [Example 122, 7-{3-[({[4-chloro-3-(trifluoromethyl)phenyl]amino}carbonyl)amino]phenyl}-N-[2-(diethylamino)ethyl]pyrazolo[1,5-a]pyrimidine-3-carboxamide], for which the midpoint of inhibition, the IC50, lay at 0.14 µM and the inhibition at 10 µM came out at 83%.
In the same order, the values of `O=C(Nc1cccc(-c2ccnc3c(C(=O)NCCN4CCOCC4)cnn23)c1)Nc1ccc(Cl)c(C(F)(F)F)c1` [Example 123, 7-{3-[({[4-chloro-3-(trifluoromethyl)phenyl]amino}carbonyl)amino]phenyl}-N-(2-morpholin-4-ylethyl)pyrazolo[1,5-a]pyrimidine-3-carboxamide] are 0.12 µM and 93%.
As for `O=C(Nc1cccc(-c2ccnc3c(C(=O)OCC(F)(F)F)cnn23)c1)c1cccc(C(F)(F)F)c1` [Example 125, 2,2,2-trifluoroethyl 7-(3-{[3-(trifluoromethyl)benzoyl]amino}phenyl)pyrazolo[1,5-a]pyrimidine-3-carboxylate], the inhibition at 10 µM worked out at 67%. Besides, the IC50 under setting [1] came out at 0.9 µM.
Take `O=C(Nc1cccc(-c2ccnc3c(C(=O)Oc4cccnc4)cnn23)c1)c1cccc(C(F)(F)F)c1` [Example 126, pyridin-3-yl 7-(3-{[3-(trifluoromethyl)benzoyl]amino}phenyl)pyrazolo[1,5-a]pyrimidine-3-carboxylate]: the inhibition at 10 µM was 17%. Under setting [1], the IC50 was more than 10 µM.
`CN(C)CCOC(=O)c1cnn2c(-c3cccc(NC(=O)c4cccc(C(F)(F)F)c4)c3)ccnc12` [Example 127, 2-(dimethylamino)ethyl 7-(3-{[3-(trifluoromethyl)benzoyl]amino}phenyl)pyrazolo[1,5-a]pyrimidine-3-carboxylate]: the inhibition at 10 µM came to 54%. In addition, the concentration for half-maximal inhibition (IC50) under setting [1] turned out to be 7.07 µM.
In the same order, the values of `COCCOC(=O)c1cnn2c(-c3cccc(NC(=O)c4cccc(C(F)(F)F)c4)c3)ccnc12` [Example 128, 2-methoxyethyl 7-(3-{[3-(trifluoromethyl)benzoyl]amino}phenyl)pyrazolo[1,5-a]pyrimidine-3-carboxylate] are 68% and 0.116 µM.
